How the values were obtained:
thymocyte and lymphocyte = conditions: in vitro; cited from earlier work
[1] = system: 5-FU-immune-suppressed animals; conditions: in vivo; cited from earlier work
bone marrow cells = conditions: cited from earlier work
[2] = system: oral mucositis induced by fractionated radiation (eight doses of 7.5 Gy, left buccal cheek pouch); assay: Oral mucositis induced by fractionated radiation in hamsters, mucositis scoring (Example 3, SCI-03); assay type: in vivo, Syrian Golden Hamsters; set-up: key: 0: Pouch completely healthy. No erythema or vasodilation.; 1: Light to severe erythema and vasodilation. No erosion of mucosa.; 2: Severe erythema and vasodilation. Erosion of superficial aspects of mucosa leaving denuded areas, but no frank ulceration. Decreased stippling of mucosa.; 3: Formation of off-white ulcers in one or more places. Ulcers may have a yellow/gray due to pseudomembrane. Cumulative size of ulcers should equal about ¼ of the pouch. Severe erythema and vasodilation.; 4: Cumulative seize of ulcers should equal about ½ of the pouch. Loss of pliability. Severe erythema and vasodilation.; 5: Virtually all of pouch is ulcerated. Loss of pliability (pouch can only partially be extracted from mouth)
Text: The fractionated radiation model in hamsters, developed by the Principal Investigator, has proven to be an accurate, efficient and cost-effective technique to provide a preliminary evaluation of anti-mucositis compounds. In this model, hamsters receive 8 doses of 7.5 Gy to the left cheek pouch on days 0, 1, 2, 3, […], rather than the single dose of 40 Gy on day 0 that is used in acute radiation studies. The rationale for using this scheduling for the radiation is that it more closely resembles the clinical courses of radiotherapy given to cancer patients. The course of mucositis in this model is well defined and results in peak mucositis scores approximately 14-16 days following radiation. Mortality (generally from the side effects of anesthesia) in the fractionated radiation model is slightly higher than that seen in the acute radiation model and group sizes are increased (to 10 per group) to allow for this.
(§1) Forty (40) male Syrian Golden Hamsters were given eight doses of radiation of 7.5 Gy each directed to their left buccal cheek pouch on days 0, 1, 2, 3, 6, 7, 8 and 9. This was accomplished by anesthetizing the animals and everting the left buccal pouch, while protecting the rest of the animal's bodies with a lead shield. Test materials were given by sub-cutaneous injection once daily as detailed in Table 9. Mucositis was evaluated clinically starting on day 7, and continuing on alternate days until day 35. Test articles were given as outlined Table 9, Groups 1 and 2 were dosed from Day −1 to Day 29, Group 3 was dosed on the days of radiation only, Group 4 was dosed on the days between Day −15 and Day 29 on which no radiation is given (Day −1, Day 4, Day 5 and Day 10 to Day 29).
The effect on mucositis of each drug treatment compared to placebo was assessed according to the following parameters:
On each evaluation day, the number of animals with a blinded mucositis score of ≧3 in each drug treatment group was compared to the control group. Differences were compared on a cumulative basis and statistical significance was determined by chi-square analysis. Efficacy, in this analysis, is defined by a significant reduction in the number of days that a group of animals had ulcerations (scores ≧3) when compared to the control group.
For each evaluation day the scores of the control group were compared to those of the treated groups using non-parametric rank sum analysis. Treatment success was considered as a statistically significant lowering of scores in the treated group on 2 or more days from day 6 to day 28.
as §1, with “daily at 8:00 am” for “daily”, “9. […]” for “9. Mucositis was evaluated clinically starting on day 7, and continuing on alternate days until day 35.”, “2 was” for “2 were”, “radiation only (days 0-3 and days 6-10),” for “radiation only,”, “Day −1” for “Day −15”, “Day 4 to” for “Day 4,”
Radiation was generated with a Philips 160 kVp (kilovolt potential) (18.75-ma) X-ray source at a focal distance of 30 cm, with a 3.0 mm hardened Al filtration system. Irradiation was targeted to the left buccal pouch mucosa at a rate of 3.32 Gy/minute. […] Using this calibration, the energy received by each animal at each radiation dose was approximately 64.5 nC (nanoCoulombs) at each time point. Prior to irradiation, animals were anesthetized with an intraperitoneal injection of ketamine (160 mg/kg) and xylazine (8 mg/kg). The left buccal pouch was everted, fixed and isolated using a lead shield.
The mucositis score, weight change and survival were measured throughout the study as described above. […]

N[C@H](CCC(=O)N[C@@H](Cc1c[nH]c2ccccc12)C(=O)O)C(=O)O [SCV-07, γ-D-glutamyl-L-tryptophan]
Con-A-induced thymocyte and lymphocyte proliferation (thymocyte and lymphocyte): increases | immunostimulatory effect on 5-FU-immune-suppressed animals [1]: strong immunostimulatory effect | expression of Thy-1.2 on bone marrow cells (bone marrow cells): stimulates | Mucositis score ([2]; Group 2, day 13, individual animals (two score lines each)): 2 | Mucositis score ([2]; Group 2, day 23, individual animals (two score lines each)): 2 | Mucositis score ([2]; Group 2, day 25, individual animals (two score lines each)): 2 | Mucositis score ([2]; Group 2, day 27, individual animals (two score lines each)): 2 | Mucositis score ([2]; Group 2, day 31, individual animals (two score lines each)): 2 | Mucositis score ([2]; Group 2, day 33, individual animals (two score lines each)): 2
